≈ marks a conversion by molar mass, not a printed value. Read-outs that look alike come from different tables or passages of the source.
Legend:
[1] = test system: non-growing S. aureus DSM2569; assay: Dose-dependent killing analysis (CFU spot-plating) of stationary-phase S. aureus; assay type: cell-based, Staphylococcus aureus; settings: at 10 µM, 24 h treatment
Method: To determine the spectrum of activity of the compounds that were effective against non-growing UPEC, we further assessed their efficacy against the well-characterized Gram-negative and Gram-positive reference strains P. aeruginosa DSM1117 and S. aureus DSM2569, respectively. The cultures were grown and treated for 24 h in 1:4 CA-MHB (pH 7.4). […].
For survival analysis, bacteria were cultivated as described for the dose–response dilution-regrowth assay. Assays with UPEC were conducted at the CBCS screening facility using 96-well plates with a 200 μl sample volume, and compounds were dispensed using the Echo® (Labcyte) system. P. aeruginosa and S. aureus samples were treated according to the protocol used for the dilution-regrowth experiments. Treated samples were serially diluted 10-fold in PBS, and 10 μl drops were spot-plated onto rectangular LB agar plates using either a Beckman NXP robot (for UPEC) or an Integra VIAFLO96 electronic pipette (for P. aeruginosa and S. aureus). The LB agar plates were incubated overnight at 37 °C and scanned. Colonies were counted at the spots of the lowest dilution where individual colonies could be accurately distinguished. Each colony was manually marked on a separate image layer using the GNU Image Manipulation Program, and counted using NIST’s Integrated Colony Enumerator (NICE 1.4) software. The experiments were performed in three biological replicates.

S. aureus DSM2569 = assay: MIC, standard microdilution assay, growing S. aureus; assay type: cell-based, Staphylococcus aureus; settings: Staphylococcus aureus, DSM2569; S. aureus; CA-MHB pH 7.4; read-out: MIC (μM) CA-MHB
How it was run: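 Each strain was exposed to serially diluted compound in broth, in triplicate. The media were TSB for Shigella; CA-MHB at pH 7.4 (HEPES 40 mM) for S. aureus, P. aeruginosa and UPEC; and, for UPEC only, low-pH LPM (pH 5.5, 30 mM MES).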

non-growing UPEC CFT073 [2] = assay: Dilution-regrowth assay (screen, hit validation, dose-response) on stationary-phase UPEC; assay type: cell-based, Escherichia coli; settings: for EC50: Escherichia coli
How it was run: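 Regrowth (OD600 after 6 h, 37 °C) of diluted non-growing CFT073, following 24 h compound treatment of 24 h stationary cultures, defines activity relative to untreated control. Screen at 20 µM, validation at 20, 10, 5 µM (duplicates), dose–response in three biological replicates fitted by five-parameter logistic.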

non-growing UPEC CFT073 [3] = assay: Dose-dependent killing analysis (CFU spot-plating) of stationary-phase UPEC; assay type: cell-based, Escherichia coli; settings: 24 h treatment of stationary phase culture
How it was run: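 Killing assessed by CFU counts: overnight 37 °C LB agar spot plates (10 μl drops of 10-fold PBS dilutions) scored at the lowest dilution with distinct colonies. Samples were compound-treated non-growing UPEC CFT073, 200 μl per well. Performed as three biological replicates.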

[4] = test system: non-growing P. aeruginosa DSM1117; assay: Dose-dependent killing analysis (CFU spot-plating) of stationary-phase P. aeruginosa; assay type: cell-based, Pseudomonas aeruginosa
How it was run: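 Viability by CFU: samples serially diluted 10-fold in PBS, spotted on LB agar, grown overnight at 37 °C, and colonies counted at the lowest resolvable dilution. Non-growing P. aeruginosa DSM1117 had been dosed for 24 h in 1:4 CA-MHB (pH 7.4); three biological replicates.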

[5] = E. coli, pH 7.4, regrowth delay of non-growing bacteria, 1:4 CA-MHB, 24 h treatment, OD600 6 h after 2500-fold dilution, read-out: EC50

Question: `CCCCC(CC)CNC(=N)NC(=N)NCCCCCCNC(=N)NC(=N)NCC(CC)CCCC` (stereo not drawn) [Alexidine] was tested. Which “reduction of non-growing S. aureus” value [1] did it give?
Answer: The value was “below the limit of detection”.

Question: What about the MIC (S. aureus DSM2569) of the same compound?
Answer: Its MIC is 1 µM (≈ 0.509 µg/mL).

Question: And the “Regrowth, OD600 at 6h or 8h after dilution into drug-free medium (average)” value (non-growing UPEC CFT073 [2]; E. coli in 1:4 CA-MHB (pH 7.4), drug concentration 0.25)?
Answer: Its value is 0.643.

Question: What about the “Regrowth, OD600 at 6h or 8h after dilution into drug-free medium (average)” value (non-growing UPEC CFT073 [2]; E. coli in 1:4 CA-MHB (pH 7.4), drug concentration 0.5) of the same compound?
Answer: Its value is 0.630.

Question: And the “Regrowth, OD600 at 6h or 8h after dilution into drug-free medium (average)” value (non-growing UPEC CFT073 [2]; E. coli in 1:4 CA-MHB (pH 7.4), drug concentration 1)?
Answer: The value was 0.631.

Question: What about the “Regrowth, OD600 at 6h or 8h after dilution into drug-free medium (average)” value (non-growing UPEC CFT073 [2]; E. coli in 1:4 CA-MHB (pH 7.4), drug concentration 2.5) of the same compound?
Answer: Its value is 0.636.

Question: And the “Regrowth, OD600 at 6h or 8h after dilution into drug-free medium (average)” value (non-growing UPEC CFT073 [2]; E. coli in 1:4 CA-MHB (pH 7.4), drug concentration 5)?
Answer: The value was 0.622.

Question: And the “Regrowth, OD600 at 6h or 8h after dilution into drug-free medium (average)” value (non-growing UPEC CFT073 [2]; E. coli in 1:4 CA-MHB (pH 7.4), drug concentration 10)?
Answer: Its value is 0.568.

Question: What about the “Regrowth, OD600 at 6h or 8h after dilution into drug-free medium (average)” value (non-growing UPEC CFT073 [2]; E. coli in 1:4 CA-MHB (pH 7.4), drug concentration 30) of the same compound?
Answer: The value was 0.074.

Question: What about the “Regrowth, OD600 at 6h or 8h after dilution into drug-free medium (average)” value (non-growing UPEC CFT073 [2]; E. coli in LPM (pH 5.5), drug concentration 0.25) of the same compound?
Answer: The value was 0.604.

Question: What about the “Regrowth, OD600 at 6h or 8h after dilution into drug-free medium (average)” value (non-growing UPEC CFT073 [2]; E. coli in LPM (pH 5.5), drug concentration 0.5) of the same compound?
Answer: Its value is 0.591.

Question: What about the “Regrowth, OD600 at 6h or 8h after dilution into drug-free medium (average)” value (non-growing UPEC CFT073 [2]; E. coli in LPM (pH 5.5), drug concentration 1) of the same compound?
Answer: The value was 0.602.

Question: And the “Regrowth, OD600 at 6h or 8h after dilution into drug-free medium (average)” value (non-growing UPEC CFT073 [2]; E. coli in LPM (pH 5.5), drug concentration 2.5)?
Answer: The value was 0.604.

Question: What about the “Regrowth, OD600 at 6h or 8h after dilution into drug-free medium (average)” value (non-growing UPEC CFT073 [2]; E. coli in LPM (pH 5.5), drug concentration 5) of the same compound?
Answer: Its value is 0.576.

Question: And the “Regrowth, OD600 at 6h or 8h after dilution into drug-free medium (average)” value (non-growing UPEC CFT073 [2]; E. coli in LPM (pH 5.5), drug concentration 10)?
Answer: The value was 0.067.

Question: What about the “Regrowth, OD600 at 6h or 8h after dilution into drug-free medium (average)” value (non-growing UPEC CFT073 [2]; E. coli in LPM (pH 5.5), drug concentration 30) of the same compound?
Answer: The value was 0.069.

Question: What about the EC50 (non-growing UPEC CFT073 [2]; 1:4 CA-MHB pH 7.4 (black curve), medium assigned by comparison with Dataset 1, read-out: EC50 (regrowth inhibition curve, Fig. S4)) of the same compound?
Answer: The EC50 was 23.4 µM.

Question: What about the EC50 (non-growing UPEC CFT073 [2]; [5]) of the same compound?
Answer: The EC50 was 15.6 µM.

Question: And the EC50 (non-growing UPEC CFT073 [2]; LPM pH 5.5 (red curve), medium assigned by comparison with Dataset 1, read-out: EC50 (regrowth inhibition curve, Fig. S4))?
Answer: Its EC50 is 7.18 µM.

Question: What about the “activity against non-growing UPEC in LPM (pH 5.5) compared to 1:4 CA-MHB (pH 7.4)” value (non-growing UPEC CFT073 [2]; regrowth delay and killing, Figs. 2 and 3) of the same compound?
Answer: Its value is “potentiated by the low pH”.

Question: `CC[C@H]1OC(=O)[C@@](C)(F)C(=O)[C@H](C)[C@@H](O[C@@H]2O[C@H](C)C[C@H](N(C)C)[C@H]2O)[C@](C)(OC)C[C@@H](C)C(=O)[C@H](C)[C@H]2N(CCCCn3cc(-c4cccc(N)c4)nn3)C(=O)O[C@]12C` [Solithromycin] was tested. Which MIC (S. aureus DSM2569) did it give?
Answer: The MIC was 0.05 µM (≈ 0.0423 µg/mL).

Question: What about the EC50 (non-growing UPEC CFT073 [2]; [5]) of the same compound?
Answer: Its EC50 is 0.288 µM.

Question: What about the “bactericidal activity against non-growing UPEC (CFU counting)” value (non-growing UPEC CFT073 [3]) of the same compound?
Answer: The value was “did not kill”.

Question: And the “reduction of bacterial counts, stationary phase P. aeruginosa” value ([4]; at 0.5 µM, 24 h treatment)?
Answer: Its value is “more than four”.

Question: What about the “reduction of bacterial counts, non-growing P. aeruginosa” value ([4]; at 2.5 µM, 1:4 CA-MHB pH 7.4, 24 h treatment) of the same compound?
Answer: Its value is “more than four”.

Question: And the “killing of non-growing P. aeruginosa” value ([4]; at 2.5 µM, 24 h treatment)?
Answer: The value was greater than 4 log10.

Question: And the “reduction of bacterial counts, non-growing P. aeruginosa” value ([4]; at 10 µM, 24 h treatment)?
Answer: The value was “more than four”.
